Test results: patent US20260207626A1, “SYNTHETIC TRITERPENOIDS AND COMPOSITIONS THEREOF IN WEIGHT MANAGEMENT, SKELETAL MUSCLE FUNCTION, AND APPETITE SUPPRESSION” (The Board of Regents of the University of Texas System, priority 2022, published 2026)
“Also recorded” adds a separate entry of the source.

Assays:
L6-GLUT4myc myotubes = assay: Sulforhodamine B (SRB) cell viability assay; format: cell-based, rat; details: 500 nM CDDO-EA, 24 hours
Procedure: Sulforhodamine B (SRB) cell viability assay: L6-GLUT4myc myoblasts (4000 cells/well) were seeded on a 96-well plate and differentiated into myotubes with differentiation medium for 7 days. Myotubes were then treated with doubling concentrations of CDDO-EA for 6 or 24 h. After treatment, myotubes were fixed in 10% cold trichloroacetic acid (TCA) (Sigma Aldrich), for 1 h in 4° C., followed by three washings with water. The plate was then dried, and the cells were dyed with 100 μL/well of 0.057% SRB (Sigma Aldrich) in 1% acetic acid for 30 min in room temperature. The plate was washed with 1% acetic acid five times, dried, and 200 μL/well of 10 mM unbuffered tris-base solution were added to dissolve the bound SRB. The plate was shaken for 1 h and then read on SpectraMax at 560 nm. Results were normalized to values for non-treated cells.

MCP-1 = assay: Quantitative RT-PCR of LPS-induced MCP-1 mRNA in L6-GLUT4myc myotubes; format: cell-based, rat; details: 500 nM CDDO-EA 1 hr then 100 ng/ml LPS 1 hr
Procedure: Quantitative RT-PCR: L6-GLUT4myc myoblasts (4×10^4 cell/ml, 2 ml/well) were seeded on a 6-well plate and differentiated into myo-tubes with differentiation medium for 7 days. Myotubes were pre-treated with CDDO-EA 500 nM for 1 h followed by LPS 100 ng/ml (E. coli O111: B4, Sigma Aldrich) treatment for 1 h. RNA was isolated from treated myotubes using TRIzol reagent (Ambion) according to the manufacturer's instructions. Validated RT-PCR primers specific for rat TNF-α (Assay ID: Rn99999017_m1) and rat MCP-1 (Assay ID: Rn00580555_m1), or rat GAPDH (Assay ID: Rn99999916_s1) were used to quantify mRNA levels using TaqMan RNA-to-CT 1-Step Kit (Thermo Fisher Scientific), Real-time PCR was carried out using an AB7900HT Fast Real-Time PCR System (Applied Biosystems), and MCP-1 and TNF-α levels were calculated using the ΔΔCT method according to the manufacturer's instructions.

TNF-α = assay: LPS-induced TNF-α ELISA in RAW 264.7 macrophages; format: cell-based, mouse; details: RAW264.7, 500 nM CDDO-EA 1 hour then 100 ng/ml LPS 6 hours
Procedure: Cytokine detection: RAW 264.7 cells were grown on 24-well dishes at 1×10^6 cells/ml, 0.5 ml/well. Cells were pre-treated with CDDO-EA 500 nM for 1 h. After 1 h, cells were treated with 100 ng/ml of LPS16,18 (E. coli O111: B4, Sigma Aldrich) for 6 h, and supernatants were collected and stored at −80° C. until analysis. TNF-α from the culture media of cells was measured and quantified using a Mouse TNF (Mono/Mono) ELISA Set (BD Bioscience) according to the manufacturer's instructions.

GLUT4 = assay: GLUT4myc translocation by immunofluorescence in L6-GLUT4myc myotubes; format: cell-based, rat
Procedure: Immunofluorescence and confocal microscopy were employed to visualize the localization of c-myc epitope-tagged GLUT4 in L6-GLUT4myc myotubes treated with CDDO-EA for 1 h. L6-GLUT4myc myotubes were also treated with insulin alone for 15 min as a positive control.
To examine the properties of CDDO-EA in regulating glucose metabolism in the skeletal muscle, the present study examined whether CDDO-EA induces translocation of GLUT4 to the cell surface (FIG. 16A). Immunofluorescence and confocal microscopy were used to visualize the localization of c-myc epitope-tagged GLUT4 in L6-GLUT4myc cells.
Immunofluorescence microscopy: L6-GLUT4myc myoblasts (4×10^4 cells/ml, 0.2 ml/well) were plated onto Nunc Lab-TekII 8-chamber slides (Thermo Fisher Scientific) and differentiated for 7 days. Myotubes were pre-treated with CDDO-EA 500 nM for 1 h followed by LPS 100 ng/ml (E. coli O111: B4, Sigma Aldrich) treatment for 1 h. After treatment, myotubes were fixed, permeabilized, and stained with anti-NF-κB p65 primary antibody (cat #sc-372, 1:100, Santa Cruz Biotechnology) and a goat anti-rabbit secondary antibody conjugated with Alexa Fluor® 488 (cat #A32731, 1:500, Invitrogen) as previously described. For GLUT4myc cell membrane staining, myotubes were pre-treated with CDDO-EA 500 nM for 1 h followed by LPS 100 ng/ml (E. coli 0111: B4, Sigma Aldrich) treatment for 1 h. Insulin 100 nM (cat #19278, Sigma Aldrich) treatment was for 15 min. After CDDO-EA, LPS, and insulin treatment, myotubes were fixed without permeabilization and stained with anti-c-myc primary antibody (cat #C3956, 1:100, Sigma Aldrich) and a goat anti-rabbit secondary antibody conjugated with Alexa Fluor® 488 (cat #A32731, 1:500, Invitrogen) as previously described.

[1] = Food intake in mice fed HFD with or without CDDO-EA, LFD or HFD pair-fed; format: in vivo, C57BL/6J mice; details: HFD + CDDO-EA (0.04%) vs ad libitum HFD
Description: C57BL/6J mice were fed a HFD with or without incorporation of CDDO-EA (diet containing 0.04% CDDO-EA) or LFD or HFD pair-fed for 6 weeks (n=5). Food intake data points in week 1 are not recorded when mice were in the Prometheion. Data are represented as mean±SEM (Two-way Repeated Measures ANOVA). *p<0.05; **p<0.01 vs. HFD pair-fed; ? p<0.01 vs. HFD+CDDO-EA; ##p<0.01 vs. LFD ad lib.
(§1) C57BL/6J mice (6-8 weeks old, male, strain #000664, The Jackson Laboratory) were divided into four (4) groups (i)-(iv)): (i) ad libitum Low fat caloric content (LFD-10% of total calories from fat caloric content, #TD.08806, Envigo), (ii) ad libitum HFD (60% of total calories from fat caloric content, #TD.06414, Envigo), (iii) HFD+CDDO-EA (diet containing 0.04% CDDO-EA), and (iv) HFD pair-fed to food intake of mice fed HFD+CDDO-EA. The study was for 6 weeks (42 days) (performed at Vanderbilt Metabolic Mouse Phenotyping Center (VMMPC)). Mice were singly housed in a Promethion Metabolic Analyzer and were monitored continuously for 7 days to assess feeding and EE.

[2] = Body composition by NMR at 42 days; format: in vivo, C57BL/6J mice; details: all groups
Procedure: FIG. 24—Body composition at 42 days. Body composition was measured by NMR. C57BL/6J mice were fed a HFD with or without incorporation of CDDO-EA (diet containing 0.04% CDDO-EA) or LFD or HFD pair-fed for 6 weeks (n=5). BW=body weight. Data are represented as mean±SEM (Two-way Repeated Measures ANOVA).
as §1

CCNC(=O)[C@]12CCC(C)(C)C[C@H]1C1C(=O)C=C3[C@@]4(C)C=C(C#N)C(=O)C(C)(C)[C@@H]4CC[C@@]3(C)[C@]1(C)CC2 (stereo partly drawn) [CDDO-EA, (4aS,6aR,6bS,8aR,12aS,14bS)-11-cyano-N-ethyl-2,2,6a,6b,9,9,12a-heptamethyl-10,14-dioxo-1,3,4,5,6,6a,6b, 7,8,8a,9,10,12a, 14,14a, 14b-hexadecahydropicene-4a (2H)-carboxamide]
cell viability (L6-GLUT4myc myotubes): 62%
LPS-induced MCP-1 mRNA expression (MCP-1): lowered LPS-induced mRNA levels of TNF-α and MCP-1; also recorded: blocked the mRNA expression of LPS-induced TNF-α and MCP-1; also recorded: reduced LPS-induced TNF-α and MCP-1 gene expression levels; also recorded: inhibits LPS-inducted TNF-α and MCP-1 gene expression
LPS-induced TNF-α production (TNF-α): substantially blocked; also recorded: inhibits LPS-induced cytokines secretion in macrophages
CDDO-EA-stimulated GLUT4myc translocation in presence of LPS (GLUT4; 500 nM CDDO-EA 1 h then 100 ng/ml LPS 1 h): did not inhibit CDDO-EA-stimulated GLUT4myc translocation; also recorded: did not prevent CDDO-EA-stimulated GLUT4myc translocation to the cell surface
GLUT4myc translocation to the cell surface (GLUT4; CDDO-EA 500 nM 1 h, insulin 100 nM 15 min): induced GLUT4myc translocation to the cell surface; also recorded: activates GLUT4 translocation to cell membrane and p38 phosphorylation
food intake [1]: prevented an increase in food intake; also recorded: decreases food intake
lean mass [2]: no difference in lean mass between the groups
